This note sets out measurements from PMC4230905, “(S)-3-hydroxyacyl-CoA dehydrogenase/enoyl-CoA hydratase (FadB’) from fatty acid degradation operon of Ralstonia eutropha H16” (AMB Express, 2014).

The target of series [1] is T1, FadB' ((S)-3-hydroxyacyl-CoA dehydrogenase/enoyl-CoA hydratase, H16_A0461; FadB'Re) (Cupriavidus necator, UniProt Q0KEG0).
T1 construct: N-terminal His-tag (pCOLADuet-1::3HAD), expressed in E. coli BL21; monomer (87 kDa by gel filtration); N-terminal 3HCDH and C-terminal crotonase-like domain
T1 sequence (Q0KEG0 1-807): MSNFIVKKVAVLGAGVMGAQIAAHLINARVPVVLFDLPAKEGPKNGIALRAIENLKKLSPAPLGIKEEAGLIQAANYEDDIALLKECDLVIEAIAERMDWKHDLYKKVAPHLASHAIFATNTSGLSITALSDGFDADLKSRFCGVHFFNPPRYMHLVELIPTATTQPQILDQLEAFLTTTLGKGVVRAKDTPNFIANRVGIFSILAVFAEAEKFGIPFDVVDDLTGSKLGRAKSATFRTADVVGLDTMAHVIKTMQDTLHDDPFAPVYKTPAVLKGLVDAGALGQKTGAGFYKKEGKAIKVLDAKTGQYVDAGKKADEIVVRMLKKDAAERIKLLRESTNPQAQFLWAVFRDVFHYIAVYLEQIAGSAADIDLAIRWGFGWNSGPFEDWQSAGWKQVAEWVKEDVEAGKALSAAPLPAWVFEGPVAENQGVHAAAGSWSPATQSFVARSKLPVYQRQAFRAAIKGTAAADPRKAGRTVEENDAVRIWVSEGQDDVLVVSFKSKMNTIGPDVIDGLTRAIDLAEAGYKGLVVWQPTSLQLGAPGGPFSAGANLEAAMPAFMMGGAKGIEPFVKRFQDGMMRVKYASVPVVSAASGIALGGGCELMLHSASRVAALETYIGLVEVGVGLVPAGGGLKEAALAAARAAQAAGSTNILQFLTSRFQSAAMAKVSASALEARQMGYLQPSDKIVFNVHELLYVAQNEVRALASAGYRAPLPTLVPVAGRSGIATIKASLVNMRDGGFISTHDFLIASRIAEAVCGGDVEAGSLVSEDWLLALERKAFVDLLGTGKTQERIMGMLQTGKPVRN
Briefly: coupled assay, acetoacetyl-CoA-Mg2+ complex formation at […] nm. It is filed as biochemical. The following applies: read-out: % inhibition at 0.1 mM (enoyl-CoA hydratase activity).

The target in series [2] is T1, FadB' ((S)-3-hydroxyacyl-CoA dehydrogenase/enoyl-CoA hydratase, H16_A0461; FadB'Re). The experiment in a line: spectrophotometric NADH oxidation at […] nm. It is filed as biochemical. The following applies: read-out: % inhibition at 0.1 mM (3-hydroxyacyl-CoA dehydrogenase activity).
Substrate in the series “purified protein”: CC(=O)CC(=O)SCCNC(=O)CCNC(=O)[C@H](O)C(C)(C)COP(=O)(O)OP(=O)(O)OC[C@H]1O[C@@H](n2cnc3c(N)ncnc32)[C@H](O)[C@@H]1OP(=O)(O)O
Briefly: purified protein. It is filed as biochemical, Cupriavidus necator. The following applies: 3-hydroxyacyl-CoA dehydrogenase activity (reduction direction), 0.2 mM NADH, 100 mM Tris-HCl pH 7, 30 °C, no acetyl-CoA added.

For orientation: inhibition means the drop in the measured response relative to a control, in per cent. Regarding `CCC(=O)SCCNC(=O)CCNC(=O)[C@H](O)C(C)(C)COP(=O)(O)OP(=O)(O)OC[C@H]1O[C@@H](n2cnc3c(N)ncnc32)[C@H](O)[C@@H]1OP(=O)(O)O` [propionyl-CoA], in series [1], the inhibition at 100 µM was ~60%.

In the case of `CC(=O)SCCNC(=O)CCNC(=O)[C@H](O)C(C)(C)COP(=O)(O)OP(=O)(O)OC[C@H]1O[C@@H](n2cnc3c(N)ncnc32)[C@H](O)[C@@H]1OP(=O)(O)O` [acetyl-CoA], the values for the inhibition at 100 µM in series [2] and in series [1] were ~50% and 70%, respectively.

As for `CC(C)(COP(=O)(O)OP(=O)(O)OC[C@H]1O[C@@H](n2cnc3c(N)ncnc32)[C@H](O)[C@@H]1OP(=O)(O)O)[C@@H](O)C(=O)NCCC(=O)NCCS` [CoA], the inhibition at 100 µM in series [2] amounted to 20%; in series [1], 30%.

B1: FadB' ((S)-3-hydroxyacyl-CoA dehydrogenase/enoyl-CoA hydratase, H16_A0461; FadB'Re) (Cupriavidus necator H16) (protein)
chain: MSNFIVKKVAVLGAGVMGAQIAAHLINARVPVVLFDLPAKEGPKNGIALRAIENLKKLSPAPLGIKEEAGLIQAANYEDDIALLKECDLVIEAIAERMDWKHDLYKKVAPHLASHAIFATNTSGLSITALSDGFDADLKSRFCGVHFFNPPRYMHLVELIPTATTQPQILDQLEAFLTTTLGKGVVRAKDTPNFIANRVGIFSILAVFAEAEKFGIPFDVVDDLTGSKLGRAKSATFRTADVVGLDTMAHVIKTMQDTLHDDPFAPVYKTPAVLKGLVDAGALGQKTGAGFYKKEGKAIKVLDAKTGQYVDAGKKADEIVVRMLKKDAAERIKLLRESTNPQAQFLWAVFRDVFHYIAVYLEQIAGSAADIDLAIRWGFGWNSGPFEDWQSAGWKQVAEWVKEDVEAGKALSAAPLPAWVFEGPVAENQGVHAAAGSWSPATQSFVARSKLPVYQRQAFRAAIKGTAAADPRKAGRTVEENDAVRIWVSEGQDDVLVVSFKSKMNTIGPDVIDGLTRAIDLAEAGYKGLVVWQPTSLQLGAPGGPFSAGANLEAAMPAFMMGGAKGIEPFVKRFQDGMMRVKYASVPVVSAASGIALGGGCELMLHSASRVAALETYIGLVEVGVGLVPAGGGLKEAALAAARAAQAAGSTNILQFLTSRFQSAAMAKVSASALEARQMGYLQPSDKIVFNVHELLYVAQNEVRALASAGYRAPLPTLVPVAGRSGIATIKASLVNMRDGGFISTHDFLIASRIAEAVCGGDVEAGSLVSEDWLLALERKAFVDLLGTGKTQERIMGMLQTGKPVRN
notes: N-terminal His-tag (pCOLADuet-1::3HAD), expressed in E. coli BL21; monomer (87 kDa by gel filtration); N-terminal 3HCDH and C-terminal crotonase-like domain
Usually Km stands for the substrate concentration at which the rate is half of its maximum. For B1, in “purified protein”, the Michaelis constant (Km) was determined as 48 µM.
